Results as given in publication PMC11695203, “A new peptide inhibitor of C1QBP exhibits potent anti‐tumour activity against triple negative breast cancer by impairing mitochondrial function and suppressing homologous recombination repair” (Clinical and Translational Medicine, 2025).

What was measured:
MDA-MB-231 xenograft = experiment: MDA-MB-231 tumour model in nude mice; type: in vivo, BALB/c nude mice; settings: PJ34-HCL combination study, harvested tumours
Procedure: (§1) Four‐week‐old BALB/c nude mice (Charles River Laboratories, Beijing, China) were subcutaneously inoculated in the breast fat pad with 1 × 10^7 MDA‐MB‐231 cells. The treatment group received 10 mg/kg PDBAG1, while the control group was administered an equal volume of PBS. For preliminary experiment of immunocompetent mice, 4‐week‐old BALB/c mice (Charles River Laboratories) were subcutaneously inoculated in the mammary fat pad with 1 × 10^6 4T1 cells. The treatment group received 10 mg/kg PDBAG1, while the control group was administered an equal volume of PBS. For evaluating the PJ34‐HCL combination, 28 randomly assigned BALB/c nude mice were divided into respective treatment groups as follows: Group 1 served as a negative control and received PBS; Group 2 received intraperitoneal injections of 10 mg/kg PDBAG1 every 3 days; Group 3 received 1 mg/kg PJ34‐HCL every 3 days; Group 4 was treated with a combination of 10 mg/kg PDBAG1 and 1 mg/kg PJ34‐HCL every 3 days. Both PDBAG1 and PJ34‐HCL were dissolved in specific concentrations of normal saline and administered intraperitoneally. All mice were sacrificed 4 weeks after inoculation, and their subcutaneous xenografts were resected and weighed. Subsequently, formalin‐fixed subcutaneous tumours were processed into paraffin‐embedded sections for routine IHC analysis. […]

MDA-MB-231 cells = experiment: CCK-8 assay, MDA-MB-231; type: cell-based, human; settings: CCK-8, MDA-MB-231 and MDA-MB-468, co-treated 72 h / 24 h
Procedure: The cells were cultured at the corresponding cell densities in 96‐well plates. Following treatment with specific concentrations of reagents for designated durations, the CCK8 reagent was added to each well at a final ratio of 10% (v/v). After incubation for 2 h, the absorbance at 450 nm was measured using a microplate reader (H4, Synergy). For the Edu assay, logarithmic growth phase cells were inoculated into 96‐well plates at a density of 3 × 10^4 cells/mL. Subsequently, they were treated with specific concentrations of reagents for designated durations and then replaced with EdU medium containing a final concentration of 10 µmol/L. The cells were incubated for an additional period of 2 h. Following PBS washing and fixation with 4% paraformaldehyde for 30 min, Apollo staining reaction solution was added according to instructions and allowed to react for another 30 min. This was followed by addition of DAPI staining reaction solution for a duration of 10 min before washing again with PBS. Three randomly selected fields of vision from each group in each well were calculated and photographed under a fluorescence microscope. […] Three random fields of view were selected to quantify the number of cells that traversed through the microporous membrane.

[1] = tested on: HEK-293T and MCF-10A cell lines; settings: 30 μM, 24 hours
[2] = tested on: MDA-MB-231 and MDA-MB-468 cells; settings: FITC-labelled PDBAG1 50 µM, 6 h, fluorescence microscopy
Procedure: The cells were seeded in a 24‐well plate, and FITC‐labelled PDBAG1 was added to the cell culture medium at a final concentration of 50 µM. After three washes with PBS, performed 6 h post peptide addition, the samples were fixed with 4% paraformaldehyde for 15 min and stained with DAPI (5 µg/mL) for 5 min. Following PBS washing, fluorescence microscopy was employed for observation.

[3] = In vivo toxicity: body weight and HE staining of spleen, liver, kidney; settings: PDBAG1 10 mg/kg, PJ34-HCL 1 mg/kg i.p. every 3 days
Procedure: as §1

C1QBP = settings: cited from earlier work
From the text: C1QBP, targeted by PDBAG1, predominantly localises in the mitochondrial matrix and plays a crucial role in mitochondrial protein translation and function.[3] It represents a promising therapeutic target for various human cancers, including breast cancer. We observed significant overexpression of C1QBP in the TNBC subtype, which correlated with worse DFS. Based on our findings, we believe PDBAG1 primarily affects tumour cells, with minimal toxicity to normal cells. Although PDBAG1's precursor peptide is derived from normal adipose tissue, its impact on adipose metabolism is likely less pronounc ...

human C1QBP 74–282 = molecular target: T1, human C1QBP 74–282 (human, UniProt Q07021 74-282); experiment: ITC; PDBAG1 (500 µM) in the syringe into C1QBP 74–282 (17.0 µM) in the cell, 25°C, MicroCal VP ITC, no Zn2+, one set-of-sites model; buffer by the methods 20 mM HEPES pH 7.5, 600 mM NaCl, 1 mM EDTA, 1 mM EGTA, 5% glycerol, by the legend 20 mM potassium phosphate, 100 mM NaCl, pH 7.4; settings: both partners purified
T1 construct: also called p32; source: vector a gift from Dr Adrian R. Krainer
T1 sequence (looked up): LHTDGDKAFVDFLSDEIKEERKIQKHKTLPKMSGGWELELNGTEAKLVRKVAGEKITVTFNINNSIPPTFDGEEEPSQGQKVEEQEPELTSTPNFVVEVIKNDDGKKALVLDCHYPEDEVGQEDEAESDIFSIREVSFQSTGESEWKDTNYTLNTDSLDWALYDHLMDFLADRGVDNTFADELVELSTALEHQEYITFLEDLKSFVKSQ

## CN(C)CC(=O)Nc1ccc2[nH]c(=O)c3ccccc3c2c1.Cl [PJ34‐HCL]
MDA-MB-231 xenograft
  C1QBP protein in tumour tissue (IHC, western blot): no substantial changes
MDA-MB-231 cells
  Cell viability with PARP inhibitor, alone or combined with PDBAG1: exhibited significant effects

## Ac-GRKKRRQRRRPPQQASKKVCIVGSGNWGSAIA-NH2 [PDBAG1]
[1]
  Morphological alterations in non-tumour cells: no obvious in morphological alterations
[2]
  Cell penetration: potent cell‐penetrating properties
[3]
  Body weight during or after drug administration: no significant differences
  HE staining of spleen, liver and kidney: no notable deviations from normal structure and morphology

## CGKRK [tumour-specific vascular homing peptide]
C1QBP
  Binding to C1QBP: can bind to cell surface‐associated C1QBP

## CGNKRTRGC [LyP‐1]
C1QBP
  Binding to C1QBP: can bind to cell surface‐associated C1QBP

B1: PDBAG1 (peptide derived from breast adipose tissue GPD1) (peptide)
peptide: GRKKRRQRRRPPQQASKKVCIVGSGNWGSAIA
notes: stretch of glycerol-3-phosphate dehydrogenase 1 (GPD1), found by peptidomics in benign breast adipose tissue of patients; also called peptide PDBAG1; source: synthetic peptide (Fmoc solid-phase synthesis, Shanghai Science Peptide Biological Technology Co)
Human C1QBP 74–282
  Kd: 0.334 µM
